Ends that are not written are not given here.

One test concerns the target CDK2 (Homo sapiens, UniProt P24941). The test is described as follows: Surface Plasmon Resonance (SPR) peptide binding assay. The following applies: for Ka2 / Kd1 / Kd2 / Ka1: two-state model.
In the next test the target is T1, CDK2/Cyclin E complex (Homo sapiens, UniProt P24941).
T1 construct: endogenous in cells; host or cells: C81 (HTLV-1-infected T-cell line), size-exclusion fractions 28-31 of whole cell lysate
The test is described as follows: Cyclin E immunoprecipitation and Western blot for CDK2 (complex dissociation). The format is biochemical. The following applies: 10 µM peptide, C81 fractionated cell extracts. Here is the method:
This is discussed below by the kinase activity experiment.
(§1) B) Immunoprecipitated Cyclin E samples in the presence of peptides were assessed for kinase activity. Histone H1 (1 µg/reaction) was added to each reaction tube along with 2 µl of (γ-32P) ATP (3000 Ci/mmol). Reactions were incubated at 37°C for 30 min and stopped by the addition Laemmli buffer. The samples were separated on a 4–20% Tris–Glycine gel. Samples were ran on a gel, dried, and exposed to a PhosphorImager cassette and analyzed using Molecular Dynamic’s ImageQuant Software.
C81 whole cell lysate (5 mg) was fractionated on a Superose 6 HR 10/30 column (Amersham Biosciences, Piscataway, NJ) in Buffer D (20 mM HEPES (pH 7.9), 0.05 M KCl, 0.2 mM EDTA, 0.5 mM PMSF, 0.05 DTT, and 20% Glycerol). Flow-through was collected at 0.5 ml for 50 fractions.
The pooled C81 extracts (250 µg each) were combined with 10 µM of each respective peptide. Cyclin E antibody (Santa Cruz, sc-198) was added to each reaction tube (10 µl, 2 µg), the reaction mixture was brought up to 500 µl with TNE50+0.1% NP-40 (100 mM Tris, pH 8.0; 50 mM NaCl; 1 mM EDTA, 0.1% Nonidet P-40) and was allowed to incubate while rotating overnight at 4°C. α-IgG was added to extract as a negative control, and an IP was performed in the absence of competing peptide, acting as a positive control. […]

The next test concerns the target T2, CDK2/Cyclin complex (Homo sapiens, UniProt P24941).
T2 construct: endogenous in cells; host or cells: C81 (HTLV-1-infected T-cell line), size-exclusion fractions 28-31 of whole cell lysate
Kind of test: Kinase assay of immunoprecipitated Cyclin E samples with Histone H1. The format is biochemical. The settings on record: 10 µM peptide, Histone H1 substrate. The protocol:
as §1
The levels of phosphorylation of H1 are shown in the presence of the six designed peptides.
Immunoprecipitated samples were assessed for kinase activity. After the final TNE50+0.1% NP-40 wash, beads were washed with kinase buffer (50 mM HEPES, 10 mM MgCl2, 5 mM MnCl2, 1 mM DTT, 50 mM NaF, 0.2 mM Na3VO4 and one complete tablet of protease cocktail inhibitor/50 ml buffer) to equilibrate the reaction. Histone H1 (1 µg) was added to each reaction tube along with the γ-32P ATP (2 µl at 3000 Ci/mmol). Reactions were incubated at 37°C for 30 min and stopped by the addition of 15 µl Laemmli buffer. The samples were separated by reducing SDS-PAGE on a 4–20% Tris–Glycine gel. Gels were stained with Coomassie blue, destained, and then dried for 2 hours. Following drying, the gels were exposed to a PhosphorImager cassette and analyzed utilizing Molecular Dynamic’s ImageQuant Software.

For `CC(C)C[C@H](NC(=O)[C@H](C)NC(=O)[C@H](C)NC(=O)[C@@H](N)Cc1ccc(O)cc1)C(=O)N[C@@H](CCC(N)=O)C(=O)O` [YAALQ, NH2-Y-A-A-L-Q-OH], the “mechanism of binding (SPR response curve)” value at CDK2 is “fast binding and fast dissociation”. Also, at CDK2 (with 60 µM ATP), the Ka2 is reported as 12.3±0.3 E-3 1/Ms, the Kd1 is on record as 53.9±1.4 E-3 1/s and the Kd2 is reported as 1.6±0.1 E-3 1/s. Moreover, at CDK2 (without ATP), the Ka2 is recorded as 9.0±0.3 E-3 1/Ms, the Kd1 is on record as 84.0±2.7 E-3 1/s and the Kd2 is listed as 2.2±0.1 E-3 1/s. For the same compound, the “dissociation of CDK2 from the CDK2/Cyclin complex” value at CDK2/Cyclin E complex was “weak complex disassociation”. Moreover, at CDK2/Cyclin complex, the “kinase activity (phosphorylation of H1)” value is “clear loss of kinase activity”.
As for LAALS [LAALS, reference compound], the Kd on CDK2 (without ATP) was 8 µM.
As for `CC(C)C[C@H](NC(=O)[C@H](C)NC(=O)[C@H](C)NC(=O)[C@@H](N)CC(=O)O)C(=O)N[C@H](C(=O)O)[C@@H](C)O` [DAALT, NH2-D-A-A-L-T-OH], the “mechanism of binding (SPR response curve)” value at CDK2 was “fast binding and fast dissociation”. On CDK2 (with 60 µM ATP), the Ka1 is 612.9 ± 13.0 M⁻¹ s⁻¹, the Ka2 is 34.6±1.0 E-3 1/Ms, the Kd1 was 101.2±4.3 E-3 1/s and the Kd2 is 10.1±0.1 E-3 1/s. At CDK2 (without ATP), the Ka1 is 434.1 ± 6.6 M⁻¹ s⁻¹, the Ka2 was 14.1±0.4 E-4 1/Ms, the Kd1 is 23.2±0.4 E-3 1/s and the Kd2 was 1.3±0.6 E-5 1/s. Moreover, the “dissociation of CDK2 from the CDK2/Cyclin complex” value on CDK2/Cyclin E complex is recorded as “dissociation of CDK2 from the CDK2/Cyclin complex”. Moreover, on CDK2/Cyclin complex, the “kinase activity (phosphorylation of H1)” value was “clear loss of kinase activity”.

The values are drawn from paper PMC4188581 (PLoS ONE, 2014).
